# System: PC-12
# Test: Neuroprotective activity against CoCl2-induced neuronal injury in rat PC12 cells
# Type: functional, cell-based
row,Compound,EC50 [µM]
1,CC1(C)[C@@H](O)CC[C@]2(C)[C@H]3C(=O)C=C4[C@@H]5C[C@@](C)(C(=O)O[C@@H]6O[C@H](CO)[C@@H](O)[C@H](O)[C@H]6O)CC[C@]5(C)CC[C@@]4(C)[C@]3(C)[C@@H](O)C[C@@H]12,> 40
2,CC1(C)[C@@H](O)CC[C@]2(C)[C@H]3CC=C4[C@@H]5C[C@](C)(C(=O)O)[C@@H](O)C[C@]5(C(=O)O)CC[C@@]4(C)[C@]3(C)[C@@H](O)C[C@@H]12,0.48
3,CC1(C)[C@@H](O)CC[C@]2(C)[C@H]3C(=O)C=C4[C@@H]5C[C@@](C)(C(=O)O[C@@H]6O[C@H](CO)[C@@H](O)[C@H](O)[C@H]6O)CC[C@]5(C)CC[C@@]4(C)[C@]3(C)CC[C@@H]12,> 40
4,CC1(C)C[C@H]2C3=CC[C@@H]4[C@@]5(C)CC[C@H](O[C@H]6O[C@@H](CO)[C@H](O)[C@@H](O)[C@@H]6O)C(C)(C)[C@@H]5C[C@H](O)[C@@]4(C)[C@]3(C)CC[C@@]2(C(=O)O)C[C@@H]1O,> 40
5,CC1(C)[C@@H](O)CC[C@]2(C)[C@H]3C(=O)C=C4[C@@H]5C[C@@](C)(C(=O)O)CC[C@]5(C)CC[C@@]4(C)[C@]3(C)[C@@H](O)C[C@@H]12,1.76
6,CC1(C)[C@@H](O)CC[C@]2(C)[C@H]3CC=C4[C@@H]5C[C@](C)(CO)[C@@H](O)C[C@]5(C(=O)O)CC[C@@]4(C)[C@]3(C)[C@@H](O)C[C@@H]12,7.74
7,CC1(C)C[C@H]2C3=CC[C@@H]4[C@@]5(C)CC[C@H](O)C(C)(C)[C@@H]5C[C@H](O)[C@@]4(C)[C@]3(C)CC[C@@]2(C(=O)O)C[C@@H]1O,> 40
8,CC1(C)[C@@H](O)CC[C@]2(C)[C@H]3C(=O)C=C4[C@@H]5C[C@@](C)(C(=O)O)CC[C@]5(C)CC[C@@]4(C)[C@]3(C)CC[C@@H]12 [ENOXOLONE],0.89
9,CC1(C)CC[C@]2(C(=O)O)CC[C@]3(C)C(=CC[C@@H]4[C@@]5(C)CC[C@H](O)C(C)(C)[C@@H]5CC[C@]43C)[C@@H]2C1 [OLEANOLIC_ACID],8.55
10,OC[C@H]1O[C@@H](OCCc2ccc(O)cc2)[C@H](O)[C@@H](O)[C@@H]1O [SALIDROSIDE],0.21

# Reference: ChEMBL document CHEMBL4610052, “Application of tandem biotransformation for biosynthesis of new pentacyclic triterpenoid derivatives with neuroprotective effect” (Bioorg Med Chem Lett, 2020)
